Results from PubChem BioAssay AID463206 (Broad Institute, 2010).
Activity calls are given as the source filed them.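 Rule for the calls: active = caspase luminescence falls with dose and the half-maximal concentration AC50 from the fitted curve is at or below a set limit; inconclusive = flat fit at 30 to 70% signal loss, or invalid fit; inactive = AC50 above the limit, or signal rises instead.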

test system: INS-1E cytokine-induced caspase-3/7, Caspase-Glo luminescence, 48 h; assay: inhibitors of cytokine-induced caspase-3/7 activity, dose response, orthogonal assay for beta-cell apoptosis protection project, INS-1E rat cells, luminescence (AID 463206)

| Compound | AC50 |
| --- | --- |
| O=C(Nc1nc(-c2ccccc2)cs1)c1ccccc1NS(=O)(=O)c1ccc(F)cc1 | > 26 µM (inactive) |
| CCCCNc1c(-c2ccc(OC)c(SC(C)CC)c2)nc2ccc(C)cn12 (configuration not stated) | > 26 µM (inactive) |
| CC(C)OCCCNC(=S)N1CCC(C(=O)c2ccc(Cl)cc2)CC1 | > 26 µM (inactive) |
| COc1ccccc1NC(=O)CN(c1ccc(C23CC4CC(CC(C4)C2)C3)cc1)S(C)(=O)=O | > 26 µM (inactive) |
| CCCCCc1cc(=O)oc2c(C(CCN3CCCC(C)C3)c3ccc(OC)cc3)c(OC)cc(OC)c12 (configuration not stated) | > 26 µM (inactive) |
| Cc1cc(=O)[nH]c(N/N=C/c2ccccn2)n1 | > 26 µM (inactive) |
| Cc1cc(N/N=C/c2cccc(Cl)c2)nc(-n2nc(C)cc2C)n1 | > 26 µM (inactive) |
| Cc1cc(C)c2nc(NNC(=O)c3ccc(S(=O)(=O)N4CCc5ccccc5C4)cc3)sc2c1 | > 26 µM (inactive) |
| Cc1cccc(NC(=S)Nc2ccc3cn[nH]c3c2)c1 | > 26 µM (inactive) |
| O=C(NNC(=O)c1ccccc1OCc1ccc(F)cc1)c1ccccc1O | > 26 µM (inactive) |
| Cc1ccc(NC(=O)CCC(=O)N/N=C/c2ccc([N+](=O)[O-])o2)cc1C | > 26 µM (inactive) |
| CCCCC(=O)NC(c1ccccc1OC)c1ccc2cccnc2c1O (configuration not stated) | > 26 µM (inactive) |
| Cc1ccc(NC(=O)c2ccccc2NS(=O)(=O)c2ccc(Cl)s2)cc1 | > 26 µM (inactive) |
| O=C(NCC(c1ccco1)N1CCCC1)c1ccc(Cl)c(S(=O)(=O)N2CCc3ccccc32)c1 (configuration not stated) | > 26 µM (inactive) |
| Cc1nn(C)c(C)c1CN(C)S(=O)(=O)c1ccc2ccccc2c1 | > 26 µM (inactive) |
| CC(C)OCCCNc1ncnc2c1[nH]c1ccccc12 | > 26 µM (inactive) |
| Cn1ncc2c(O/N=C(\N)c3ccc(C(C)(C)C)cc3)ncnc21 | > 26 µM (inactive) |
| O=C(N/N=C/c1cc([N+](=O)[O-])ccc1O)c1cccc2cc[nH]c12 | > 26 µM (inactive) |
| CCN(CC)S(=O)(=O)c1ccc(NC(=O)Nc2cccc(C(F)(F)F)c2)cc1 | > 26 µM (inactive) |
| CCOC(=O)C1CCN(Cc2ccc(O)c3ncccc23)CC1 | > 26 µM (inactive) |
| Cc1cccc(/C=C/C(=O)c2ccc([N+](=O)[O-])o2)c1 | > 26 µM (inactive) |
| CCCN(CCC)C(=O)c1cc([N+](=O)[O-])cc2c1-c1ccc([N+](=O)[O-])cc1C2=C(C#N)C#N | > 26 µM (inactive) |
| Cc1cnc(NC(=O)CN2CCN(c3ccccn3)CC2)s1 | > 26 µM (inactive) |
| Cc1ccc(N2C(=O)NC(=O)/C(=C\C=C\c3ccco3)C2=O)cc1C | > 26 µM (inactive) |
| CCCCC(CC)CN=C(N)NC(N)=NCCCCCCN=C(N)NC(N)=NCC(CC)CCCC (configuration not stated) | > 26 µM (inactive) |

| Compound | AC50 |
| --- | --- |
| Cc1ccc(-n2c(-c3ccccc3)c[n+]3c2CCc2ccccc2-3)c(C)c1 | > 26 µM (inactive) |
| CCc1ccc(-c2nn(-c3ccccc3)cc2CSC(=N)N)cc1 | > 26 µM (inactive) |
| COc1ccc2c(c1)c(/C=N/Nc1nc3ccccc3[nH]1)c(C)n2C | > 26 µM (inactive) |
| O=C(N/N=C/c1cc(Cl)ccc1O)C(=O)Nc1ccccc1OC(F)(F)C(F)F | > 26 µM (inactive) |
| CCOC(=O)COc1ccc2ccccc2c1/C=C/[N+](=O)[O-] | > 26 µM (inactive) |
| O=C(/C=C/c1cccc([N+](=O)[O-])c1)c1ccc([N+](=O)[O-])o1 | > 26 µM (inactive) |
| c1ccc(-c2csc3ncnc(NCC4COc5ccccc5O4)c23)cc1 (configuration not stated) | > 26 µM (inactive) |
| O=C(Nc1ccc(Cl)cc1)Nc1csc([N+](=O)[O-])c1 | > 26 µM (inactive) |
| CC1CN(S(=O)(=O)c2ccc(C(=O)NCCCn3ccnc3)cc2)CC(C)O1 (configuration not stated) | > 26 µM (inactive) |
| C=CCSc1nc2ccccc2n1C(=O)/C=C/c1ccc(OC)c(OC)c1 | > 26 µM (inactive) |
| Cc1nc(C)c(-c2csc(NCCc3ccccc3)n2)s1 | > 26 µM (inactive) |
| CCCOc1nc2c(c(=O)n(C)c(=O)n2C)n1Cc1cccc2ccccc12 | > 26 µM (inactive) |
| COc1ccc(/C=C/C(=O)c2ccc([N+](=O)[O-])o2)cc1 | > 26 µM (inactive) |
| CC(Oc1ccc(Br)cc1)c1nc2c3ccccc3nc(=S)n2[nH]1 (configuration not stated) | > 26 µM (inactive) |
| Cc1ccc(S(=O)(=O)N2CCOCC2)cc1C(=O)Nc1nc(-c2ccccn2)cs1 | > 26 µM (inactive) |
| Cc1ccn2c(Nc3ccccc3)c(-c3ccccn3)nc2c1 | > 26 µM (inactive) |
| COc1ccc(O)c(/C=N/NC(=O)c2cccc(N3CCCC3=O)c2)c1 | > 26 µM (inactive) |
| CCCCCCCCCCCCn1ccc(=N)cc1 | > 26 µM (inactive) |
| CC(=O)c1ccccc1OCCOCCOc1ccccc1C(C)=O | > 26 µM (inactive) |
| O=[N+]([O-])c1ccc(-n2cnc3ccccc32)c([N+](=O)[O-])c1 | > 12 µM (inactive) |
| CCOC(=O)N1CCN(C(=O)CSCC(=O)Nc2nc(-c3ccc(-c4ccccc4)cc3)cs2)CC1 | > 26 µM (inactive) |
| CCCC(=O)NC(c1cccs1)c1cc(Cl)c2cccnc2c1O (configuration not stated) | > 26 µM (inactive) |
| Cc1[nH]c2ccccc2c1CN1CCN(c2ccccn2)CC1 | > 26 µM (inactive) |
| CCCCNc1c(-c2ccc(-c3cccc(Cl)c3)cc2)nc2ccccn12 | > 26 µM (inactive) |
| O=C(NCc1ccccc1)C1=C[C@@H](c2csc3ccccc23)C[C@@H](OCCCCO)O1 | > 26 µM (inactive) |

| Compound | AC50 |
| --- | --- |
| NC(=O)c1ccccc1OC1CCC1 | > 26 µM (inactive) |
| CCCCCc1ccc(-c2cn(CN3C(=O)c4ccccc4C3=O)nn2)cc1 | > 26 µM (inactive) |
| Cc1ccc(NC(=O)c2c(-c3c(F)cccc3Cl)noc2C)cc1F | > 12 µM (inactive) |
| CC(NC(=O)C1CCC(C(=O)NC(C)c2ccccc2)CC1)c1ccccc1 (configuration not stated) | > 26 µM (inactive) |
| COc1ccc(CNc2ncnc3sccc23)cc1 | > 26 µM (inactive) |
| CC(C)COCc1ccc(O)c2ncccc12 | > 26 µM (inactive) |
| CCOC(=O)c1[nH]cnc1N=Nc1c(O)ccc2ccccc12 | > 26 µM (inactive) |
| O=C1N/C(=N/N=C/c2ccccc2O)SC1Cc1ccc(F)cc1 (configuration not stated) | > 26 µM (inactive) |
| Cc1ccc(-n2ncc3c2CCCC3NC(=O)c2ocnc2C)cc1C (configuration not stated) | > 26 µM (inactive) |
| O=C(/C=C/c1cccc(Cl)c1)c1ccc([N+](=O)[O-])o1 | > 26 µM (inactive) |
| O=C(NCc1cccnc1)/C(=C\c1ccc(-c2ccc(Cl)c(Cl)c2)o1)S(=O)(=O)c1ccccc1 | > 26 µM (inactive) |
| Cc1ccccc1Oc1nc(-c2ccccn2)nc2ccccc12 | > 26 µM (inactive) |
| C/C(=N\NC(=O)c1cc(Br)ccc1O)c1ccccn1 | > 26 µM (inactive) |
| COc1ccc(CNC[C@@H](CCCCN(C)Cc2ccc(OC)cc2)N2C[C@H](c3ccccc3)N(CCc3ccc(Cl)c(Cl)c3)C(=O)C2=O)cc1 | > 26 µM (inactive) |
| Cc1ccccc1Oc1cc(-n2ncc(Cl)c(Cl)c2=O)ncn1 | > 26 µM (inactive) |
| COc1ccc(S(=O)(=O)N2CCNCC2)cc1OC | > 26 µM (inactive) |
| CC(=O)NC(C)c1cc(Cl)c2cccnc2c1O (configuration not stated) | > 26 µM (inactive) |
| Cc1ccc(NC(=O)c2nc(S(=O)(=O)Cc3ccccc3)ncc2Cl)cc1 | > 26 µM (inactive) |
| Cc1cccc2c(C(=O)N3CCN(c4ccccn4)CC3)cc(-c3cccc(Br)c3)nc12 | > 26 µM (inactive) |
| COc1ccccc1N1CC(C)(C)C(=O)N(C(=O)c2ccc(Cl)cc2)C1=S | > 12 µM (inactive) |
| Cc1ccc2nc(-c3ccc(NC(=O)c4cccnc4)cc3)oc2c1 | > 26 µM (inactive) |
| Cc1cccnc1CN1CCN(C(=O)c2cc(COc3ccc4ncccc4c3)on2)CC1 | > 26 µM (inactive) |
| COc1ccc(C(C)NCCC(c2ccc(OC(C)C)cc2)c2ccccc2OC)cc1 (configuration not stated) | > 26 µM (inactive) |
| O=C(NCCc1cn2ccccc2n1)c1cc(COc2ccc3ncccc3c2)on1 | > 26 µM (inactive) |
| Nc1ccccc1C#CC(=O)c1ccccc1 | > 26 µM (inactive) |

| Compound | AC50 |
| --- | --- |
| CC(C)c1nc(-c2ccccc2)c(-c2ccccc2)[nH]1 | > 26 µM (inactive) |
| COc1nnc(-c2ccc(N3CCCCC3)c(NC(=O)C3CCCCC3)c2)c2ccccc12 | > 26 µM (inactive) |
| Oc1c(Cl)cc(Cl)cc1/C=N/Nc1ncc(Br)cn1 | > 26 µM (inactive) |
| Cc1ccc(C)c(S(=O)(=O)Nc2cc(SCC(=O)O)c(O)c3ccccc23)c1 | > 26 µM (inactive) |
| COc1ccc(CCNc2ncnc3sccc23)cc1OC | > 26 µM (inactive) |
| CC(=O)Oc1ccc(N(C(C)=O)S(=O)(=O)c2cccs2)c2ccccc12 | > 26 µM (inactive) |
| Cc1cc(C)c(S(=O)(=O)/N=C2\C=C(Nc3ccc(C(=O)O)cc3)C(=O)c3ccccc32)c(C)c1 | > 26 µM (inactive) |
| CCC1=NN(C(=O)c2ccccc2O)C(O)(c2ccccc2)C1 (configuration not stated) | > 26 µM (inactive) |
| O=[N+]([O-])c1ccc(O)c(/C=N/Nc2ccccn2)c1 | > 26 µM (inactive) |
| Cc1cccc2sc(NNC(=O)c3ccc(S(=O)(=O)N4CCc5ccccc5C4)cc3)nc12 | > 26 µM (inactive) |
| CCC(=NNC(=O)c1ccc2c(c1)nc(C)n2CC)c1cc(F)ccc1O | > 26 µM (inactive) |
| CN1/C(=C\C(=S)Nc2ccccc2)C(C)(C)c2ccccc21 | > 26 µM (inactive) |
| CCN1CCN(C2=C(NS(=O)(=O)c3ccccc3)C(=O)c3ccccc3C2=O)CC1 | > 26 µM (inactive) |
| Cc1cc(C)n2nc(SCc3nnc(SCc4ccccc4C)s3)nc2n1 | > 26 µM (inactive) |
| CC(=O)NC(c1ccco1)c1cc(F)c2cccnc2c1O (configuration not stated) | > 26 µM (inactive) |
| Cc1ccc(C2CC(c3cccc(C)c3)n3nc(N)nc3N2)cc1 (configuration not stated) | > 26 µM (inactive) |
| Cc1cc(C)cc(OCCCn2ccnc2)c1 | > 26 µM (inactive) |
| Cc1ccc(-c2c[n+]3c(n2-c2ccccc2)SCC3)cc1 | > 26 µM (inactive) |
| Cc1ccc(S(=O)(=O)Nc2ccccc2N(C)S(=O)(=O)c2ccc(C)cc2)cc1 | > 26 µM (inactive) |
| Cc1ccc(C(=O)O/N=C/c2c(N3CCOCC3)n(C)c3ccccc23)cc1 | > 26 µM (inactive) |
| Cc1ccc2c(c1)S/C(=C/c1ccc[n+](C)c1)N2CCO | > 26 µM (inactive) |
| CN1/C(=C\C(=O)C[n+]2cccc(Br)c2)C(C)(C)c2ccccc21 | > 26 µM (inactive) |
